This note sets out measurements from US6255339A, “Tetrahydronaphthofuranone derivatives and process for producing the same” (Meiji Seika Kaisha, Ltd., priority 1996, dated 2001).

One data set is described as follows: Acute Toxicity. The class given is in vivo, SD male rat. As for the experimental part: The compound of Example A4 dissolved in 0.2% of methylcellulose solution was hypodermically administered to SD male rat (16 weeks old) at a dose of 60 mg/kg.
The next data set deals with T1, progesterone receptor (Sus scrofa, UniProt D0EWS6).
T1 construct: from tissue; host or cells: hog uterus, cytosol (100,000×g supernatant)
T1 sequence (D0EWS6 1-934): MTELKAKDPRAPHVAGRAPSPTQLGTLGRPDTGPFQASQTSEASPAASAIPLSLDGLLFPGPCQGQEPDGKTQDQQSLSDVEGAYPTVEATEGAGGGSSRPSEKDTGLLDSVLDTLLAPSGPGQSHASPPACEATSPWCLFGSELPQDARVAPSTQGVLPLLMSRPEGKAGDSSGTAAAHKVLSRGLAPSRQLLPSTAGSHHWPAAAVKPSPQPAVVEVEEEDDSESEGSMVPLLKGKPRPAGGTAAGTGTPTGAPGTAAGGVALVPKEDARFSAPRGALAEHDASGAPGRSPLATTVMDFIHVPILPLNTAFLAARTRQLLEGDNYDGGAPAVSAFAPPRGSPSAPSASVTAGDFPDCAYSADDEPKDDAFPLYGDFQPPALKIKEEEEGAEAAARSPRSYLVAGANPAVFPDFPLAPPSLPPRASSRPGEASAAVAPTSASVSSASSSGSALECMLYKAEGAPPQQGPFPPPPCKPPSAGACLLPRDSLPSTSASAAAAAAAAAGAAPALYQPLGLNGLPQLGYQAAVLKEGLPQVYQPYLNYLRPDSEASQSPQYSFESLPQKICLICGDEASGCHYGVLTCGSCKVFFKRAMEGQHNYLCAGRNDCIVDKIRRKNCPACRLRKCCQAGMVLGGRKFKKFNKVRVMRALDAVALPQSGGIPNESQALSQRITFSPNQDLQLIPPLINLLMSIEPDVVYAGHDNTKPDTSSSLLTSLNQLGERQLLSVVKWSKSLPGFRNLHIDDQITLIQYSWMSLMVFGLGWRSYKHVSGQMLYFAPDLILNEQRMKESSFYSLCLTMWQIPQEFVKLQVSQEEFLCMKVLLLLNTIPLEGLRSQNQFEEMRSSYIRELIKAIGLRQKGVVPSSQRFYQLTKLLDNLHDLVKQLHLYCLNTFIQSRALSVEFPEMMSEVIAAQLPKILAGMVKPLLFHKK
The experiment in a line: progesterone receptor binding inhibition ([^3 H]-progesterone, cytosol from uteri of hogs). To be noted: [^3 H]-progesterone ligand, hog uterus cytosol, 60 min at 4° C.; read-out: Inhibitory activity (IC50) against progesterone receptor binding. As for the experimental part: That is, uteri taken from hogs in 5 mM phosphate buffer were disrupted using Polytron homogenizer, and the resulting solution was centrifuged (100,000×g, 30 min) to separate the supernatant, thereby preparing a cytosol containing progesterone receptor. […] Then, 100 μl of a 0.5% activated carbon solution was added to the reaction solution, and the mixture was allowed to stand for 10 min and then centrifuged (2,000×g, 10 min). The radioactivity of the supernatant was measured with a liquid scintillation counter.
Separately, the radioactivity was measured in the same manner as described above, except that no test drug was added. Further, the radioactivity was measured in the same manner as described above, except that 10 μl of Medroxyprogesterone Acetate (MPA) (10 μg/ml) was added instead of the test drug. The radioactivity with no test drug added was defined as the amount of total binding of [^3 H]-progesterone to the cytosol, and the radioactivity with MPA added was defined as the amount of non-specific binding. The inhibition ratio was calculated from these measured values by the following equation to determine the binding inhibitory activity (IC50). [formula]

The structures appear in SMILES notation.

As a reminder, the IC50 is the concentration that gives 50% inhibition. As for `CCC(=O)O[C@H]1[C@@H](OC(=O)CC)C=C2C=C3OC(=O)C(C)=C3C[C@]2(C)[C@H]1C` [Example A4, (4aR,5R,6R,7S)-6,7-Dipropionyloxy-4a,5,6,7-tetrahydro-3,4a,5-trimethylnaphtho[2,3-b]furan-2(4H)-one], in “Acute Toxicity” (SD male rat (16 weeks old), hypodermic, 60 mg/kg in 0.2% methylcellulose), the survival entry is recorded as “all the animals survived”. Also, in “Acute Toxicity” (rat, in vivo, 60 mg/kg), the toxicity entry is reported as “no significant toxicity”. Besides, the IC50 on progesterone receptor is 32 nM.
